# Test system: glioblastoma brain cancer cell line LN-229
# Assay: Cytotoxicity assay (CCK8 viability)
# Assay type: cell-based
# Conditions: Homo sapiens, cytotoxicity against LN-229 cells, 18 hours incubation
# Procedure: Cytoxocity assay: Cells were seeded on a 96 well polystyrene plate in full serum media at a density of 75,000 cells per milliliter, 100 μL per well. Plates were incubated at 37° C. and 5% CO2 for 24 hours to allow cell attachment. Drug solutions were prepared in DMSO at 100× concentration and mixed 1:100 in 1% FBS media to yield the desired concentration. Drug-media mixtures were vortexed immediately prior to administration to cells. Full serum media was removed and replaced with drug-media mixtures and incubated for 18 hours. 10 μL of Cell Counting Kit 8 (CCK8, Dojindo# CK04-11) was added to each well to colormetrically assess viability. After 2-4 hours of incubation with the CCK8 dye, absorbance was read at 450 nm by a BioTek Synergy 2 plate reader.
# The cytotoxicity of selected compounds against the glioblastoma brain cancer cell line LN-229 is depicted in Table 1.
row,Structure (SMILES),EC50
1,"CCCCCCC(C)(C)c1nc(O)c2c(n1)OC(C)(C)[C@H]1CC[C@@H](C)C[C@@H]21 [Compound 6b, (6aS,9R,10aR)-6,6,9-Trimethyl-3-(2-methyloctan-2-yl)-6a,7,8,9,10,10a-hexahydro-6H-isochromeno[3,4-d]pyrimidin-1-ol]",27.3 µM
2,"C[C@@H]1CC[C@H]2[C@@H](C1)c1c(O)nc(C(C)(C)C3CCCCC3)nc1OC2(C)C [Compound 6d, (6aS,9R,10aR)-3-(2-Cyclohexylpropan-2-yl)-6,6,9-trimethyl-6a,7,8,9,10,10a-hexahydro-6H-isochromeno[3,4-d]pyrimidin-1-ol]",10.6 µM
3,"C[C@@H]1CC[C@H]2[C@@H](C1)c1c(O)nc(C(C)(C)c3cccs3)nc1OC2(C)C [Compound 6e, (6aS,9R,10aR)-6,6,9-Trimethyl-3-(2-(thiophen-2-yl)propan-2-yl)-6a,7,8,9,10,10a-hexahydro-6H-isochromeno[3,4-d]pyrimidin-1-ol]",30.1 µM

# — patent US8324228B2, “Pyrimidine classical cannabinoid compounds and related methods of use” (priority 2008, dated 2012)
